In PubChem BioAssay AID1996:
Values after ≈ are worked out from the molar mass of the structure shown.

Settings: buffer; pH 7.4; 200.0 µM

Structure (SMILES) | solubility kinetic
CCc1noc(C)c1C(=O)Nc1nc(-c2ccc(F)cc2)c(C)s1 | 0.3 µg/mL (≈ 0.869 µM)
O=C(c1ccc(S(=O)(=O)Nc2ccccc2)cc1)N1CCC1 | > 47.5 µg/mL
CCC(=O)c1cn(CC(=O)Nc2cccc(C)c2C)c2ccccc12 | < 0.4 µg/mL
O=C(COC(=O)Cn1cnc2ccccc2c1=O)Nc1ccccc1OC(F)F | 15.8 µg/mL (≈ 39.2 µM)
COc1ccc(Cl)cc1NC(=O)Cn1c(=O)oc2ccccc21 | 1.2 µg/mL (≈ 3.61 µM)
CO/N=C(\N)c1nonc1N | 20.1 µg/mL (≈ 128 µM)
CC1(C2CC2)NC(=O)N(CC(=O)N2CCN(c3cccc(C(F)(F)F)c3)CC2)C1=O (stereo unspecified) | 21.6 µg/mL (≈ 50.9 µM)
CC(NC(=O)C(c1ccccc1)c1ccccc1)C(=O)N1CCCCC1 (stereo unspecified) | 49.3 µg/mL (≈ 141 µM)
O=C(COC(=O)c1ccccc1C(F)(F)F)NC(=O)NCc1ccco1 | 19.5 µg/mL (≈ 52.7 µM)
O=C1COc2ccc(C(=O)NC3CC3)cc2N1 | > 34.8 µg/mL
COc1ccc(CCNC(=O)CN2C(=O)NC3(CCCCC3)C2=O)cc1 | > 53.9 µg/mL
CC(NC(=O)c1ccc(F)cc1Cl)C1CC2CCC1C2 (stereo unspecified) | 16.6 µg/mL (≈ 56.1 µM)
O=S(=O)(NCC(O)c1ccccc1)c1ccc(-c2ccccn2)s1 (stereo unspecified) | > 54.1 µg/mL
COc1cc(C(=O)N2CCC(C(N)=O)CC2)ccc1OCc1c(C)noc1C | > 58.1 µg/mL
Cc1sc2ncnc(SCC(=O)N(C(C)C)C(C)C)c2c1C | 1.6 µg/mL (≈ 4.74 µM)
CNC(=O)c1cc(C(=O)c2ccc(F)cc2Cl)c[nH]1 | 14.1 µg/mL (≈ 50.2 µM)
COCCNC(=S)N(C)C1(c2ccccc2Cl)CCCCC1=O (stereo unspecified) | 48.2 µg/mL (≈ 136 µM)
COc1cc(CNCCc2ccc3c(c2)OCO3)ccc1O.Cl | > 50.7 µg/mL
COc1cc(C(=O)NC2CCCCCCC2)cc(OC)c1OC | < 0.7 µg/mL
Cc1ccc(N2CC(=O)Nc3c(sc4nc(C)cc(C)c34)C2=O)cc1 | 0.6 µg/mL (≈ 1.71 µM)
Clc1cccc(Cl)c1C[n+]1cccc2ccccc21.[Br-] | 51.6 µg/mL
O=C(NCc1cccc(Cl)c1)c1cc(=O)[nH]c2ccccc12 | 1.8 µg/mL (≈ 5.76 µM)

Structure (SMILES) | solubility kinetic
S=c1[nH]c2cc(Cl)c3cccnc3c2o1 | > 35.5 µg/mL
CCOC(=O)c1sc(=NC(=O)c2c(F)cccc2F)n(C)c1C | 0.9 µg/mL (≈ 2.64 µM)
C[n+]1ccccc1/C=N/O.[Cl-] | > 25.9 µg/mL
Cc1ccc(OC(C)C(=O)Nc2ccc(F)cc2)c([N+](=O)[O-])n1 (stereo unspecified) | 39.7 µg/mL (≈ 124 µM)
COc1ccc(NCc2cccnc2)cc1 | 26.8 µg/mL (≈ 125 µM)
COc1cc(C(=O)NCCOc2ccccc2)cc(OC)c1OC | > 49.7 µg/mL
CCC1(c2ccc(F)cc2)NC(=O)N(CC(=O)NC2CCCCCC2)C1=O (stereo unspecified) | 10.4 µg/mL (≈ 27.7 µM)
Oc1cccnc1Sc1cccc(C(F)(F)F)c1 | 38.2 µg/mL (≈ 141 µM)
Cc1cc(S(=O)(=O)N2CCOCC2)c(C)s1 | > 39.2 µg/mL
O=C(O)CN(C1CCCCC1)S(=O)(=O)c1ccc(F)cc1 | > 47.3 µg/mL
COc1cccc(CNC(=O)CC2Sc3ccccc3NC2=O)c1 (stereo unspecified) | 1.5 µg/mL (≈ 4.38 µM)
O=C(CSc1ccccc1C(=O)O)NCC1CCCCC1 | 44.2 µg/mL (≈ 144 µM)
CCC1(CC)NC(=O)N(CC(=O)N2CCc3ccccc32)C1=O | 45.8 µg/mL (≈ 145 µM)
O=C(O)c1cc(Cl)nc2ccccc12 | > 31.1 µg/mL
COC(=O)c1cc(Sc2cccc(Cl)c2Cl)ccn1 | 26.3 µg/mL (≈ 83.7 µM)
O=C(NC1CCCCCC1)c1cccc(S(=O)(=O)N2CCOCC2)c1 | 6.5 µg/mL (≈ 17.7 µM)
Cc1c(C(=O)N2CCOCC2)cc(C(C)(C)C)n1-c1ccccc1 | 45.3 µg/mL (≈ 139 µM)
O=[N+]([O-])c1cc(S(=O)(=O)NC2=NCCCCC2)ccc1Cl | 39 µg/mL (≈ 118 µM)
CCOc1ccc(S(=O)(=O)Nc2ccc(OC)nc2)cc1 | > 46.3 µg/mL
Cl.O=C(OCCN1CCCCC1)C1(c2ccccc2)CCCC1 | > 50.7 µg/mL
CC1CC(O)(CC(O)(c2ccccc2)c2ccccc2)C(C)CN1C (stereo unspecified) | > 50.9 µg/mL
COC(=O)C1CCN(C(=O)c2ccc3nccnc3c2)CC1 | > 44.9 µg/mL

Structure (SMILES) | solubility kinetic
Cc1cc(C)cc(OCC(=O)Nc2ccncc2)c1 | 36.7 µg/mL (≈ 143 µM)
CCOC(=O)c1cc(-c2csc(Nc3ccccc3Cl)n2)on1 | 0.6 µg/mL (≈ 1.72 µM)
Cc1cccc(C)c1NC(=O)C1CCCCN1C.Cl (stereo unspecified) | > 42.4 µg/mL
Cc1ccc(C(=O)NCC(=O)Nc2cc(C)ccn2)cc1 | > 42.5 µg/mL
Cc1ccc(NC(=O)Nc2cccnc2)cc1 | > 34.1 µg/mL
CCN1CCN(C(=O)c2c(-c3ccccc3)noc2C)CC1 | 40 µg/mL (≈ 134 µM)
C=CCNc1nc(-c2c(C)nc3ncccn23)cs1 | > 40.7 µg/mL
COC(=O)N1CCN(c2ccc(C)c(C)c2)CC1 | 32.1 µg/mL (≈ 129 µM)
Nc1ccc(-c2c3ccccc3nc3ccccc23)cc1 | < 0.3 µg/mL
Cc1nc(Cl)sc1C(=O)Nc1cc(F)cc(F)c1 | 20.7 µg/mL (≈ 71.7 µM)
O=C(Nc1cccc(Cl)c1Cl)C1CCCC1 | 3.9 µg/mL (≈ 15.1 µM)
O=C1NC(=O)C(c2ccccc2)(c2ccccc2)N1 | > 37.8 µg/mL
Cc1ccn2c(NC3CCCC3)c(-c3cccs3)nc2c1.Cl | 14.7 µg/mL
O=C(O)c1ccc(NC(=S)NCc2ccccc2)cc1 | > 43 µg/mL
CCOC(=O)N1CCN(Cc2cc(Cl)c3cccnc3c2O)CC1 | > 52.5 µg/mL
O=C(NCC1CCCCC1)c1cccc(Br)c1 | 2.2 µg/mL (≈ 7.43 µM)
Cc1noc(C)c1C(=O)Nc1nc(-c2ccc(F)c(F)c2)cs1 | 4.8 µg/mL (≈ 14.3 µM)
Cc1cccc(N(Cc2cc3ccccc3[nH]c2=O)C(=O)c2cccs2)c1 | < 0.4 µg/mL
CC1CCCCN1Cc1cccnc1.O=C(O)C(=O)O (stereo unspecified) | > 42 µg/mL
C=CCN1C(=O)C2(OCCCO2)c2cc(C)ccc21 | 19.4 µg/mL (≈ 74.8 µM)
CCOC(=O)CSc1nc(C)cc2c1C(=O)OC2 | 37.5 µg/mL (≈ 140 µM)
CCC(C)NC(=O)C1c2ccccc2Oc2ccccc21 (stereo unspecified) | 1.9 µg/mL (≈ 6.75 µM)

Structure (SMILES) | solubility kinetic
Cc1cccc2c(=O)oc(-c3ccccc3Cl)nc12 | < 0.6 µg/mL
NCC(=O)Nc1ccc(Br)cc1 | 27.6 µg/mL (≈ 120 µM)
CNC(=S)N(CCCO)Cc1cc2cc3c(cc2[nH]c1=O)OCO3 | 8.2 µg/mL (≈ 23.5 µM)
O=c1[nH]c(=S)n(-c2ccccc2F)c(O)c1C=NCCN1CCNCC1 | 55.3 µg/mL (≈ 147 µM)
CC(=O)c1ccc(NC(=O)N2C[C@H]3C[C@@H](C2)c2cccc(=O)n2C3)cc1 | > 52.7 µg/mL
O=C1CCCC/C1=C\Nc1ccc(S(=O)(=O)Nc2cnc3ccccc3n2)cc1 | 15.9 µg/mL (≈ 38.9 µM)
CCCC(=O)OCCNc1cc(SCCC(=O)OC)c2nonc2c1[N+](=O)[O-] | 19.3 µg/mL (≈ 46.8 µM)
O=C(O)c1ccccc1-c1ncc(-c2ccccc2)o1 | > 39.8 µg/mL
CCCOc1ccc2nc(C)c(CCC)c(SC(=N)N)c2c1.Cl | 33 µg/mL
O=C(NCCc1ccccc1)c1c(O)c2ccccc2[nH]c1=O | < 0.3 µg/mL
CCN(CC)S(=O)(=O)c1ccc(N2CCOCC2)c(NC(=O)c2[nH]c(C)c(C(C)=O)c2C)c1 | 3.9 µg/mL (≈ 8.18 µM)
CN1CCCN(Cc2nc(-c3ccc(Cl)cc3)no2)CC1 | 40.4 µg/mL (≈ 132 µM)
CC(=O)/C=C1/C(=O)Nc2ccccc21 | > 28.1 µg/mL
COc1ccc(C(=O)OCC(=O)NC(=O)NC2CCCC2)cc1[N+](=O)[O-] | 6.4 µg/mL (≈ 17.5 µM)
O=S(=O)(c1ccc(Cl)cc1)N1CCN(c2ncccn2)CC1 | 0.9 µg/mL (≈ 2.66 µM)
Cc1cc(C)cc(NC(=O)C2CCN(S(C)(=O)=O)CC2)c1 | 38.8 µg/mL (≈ 125 µM)
N#Cc1cccc(Cn2cc(C(F)(F)F)ccc2=O)c1 | 41.7 µg/mL (≈ 150 µM)
O=S(=O)(O)c1nc2ccccc2[nH]1 | > 29.7 µg/mL
OCCC1CN(C2CCSCC2)CCN1C1CCCC1 (stereo unspecified) | 34.5 µg/mL (≈ 116 µM)
CC(OC(=O)C1CCCCC1)C(=O)Nc1cccc(Cl)c1 (stereo unspecified) | 22.3 µg/mL (≈ 72 µM)
